From patent publication US20110262395A1, “SENSORY RECEPTORS FOR CHRONIC FATIGUE AND PAIN AND USES THEREOF” (UNIVERSITY OF UTAH RESEARCH FOUNDATION, priority 2008, published 2011)
“Also recorded” adds a separate entry of the source.

Columns and labels:
[1] = system: DRG neurons; assay: Calcium imaging of cultured DRG neurons: percent of neurons responding to applied metabolites or capsaicin; format: cell-based, mouse; settings: for ability to enhance metabolite responses: ATP: 1 μM
Description: (§1) Harvesting/culturing cells/loading cells: Thirty-nine three week old (4 wells of DRG neurons plated from each mouse), C57Bl/6 mice were anesthetized with isoflurane, and euthanized by cervical dislocation. Dorsal root ganglia (DRG) from lumbar regions were removed into HBSS, treated with trypsin, washed with MEM (Invitrogen 51200-038) containing 10% FBS (Hyclone), 2.4% glucose, 1% glutamax (Invitrogen 35050-061) and 1% penicillin/streptomycin (Atlanta Biological B2110). DRG were triturated, pre-plated and incubated at 37° C. for one hour to reduce non-neuronal cells. Neurons were gently swirled and centrifuged (110×g, 5 min). Cells were removed, re-suspended and 30 μL plated onto the 4 center wells of 24-well plates coated with poly-L-lysine and laminin. A 0.5 mm thick silicone ring with a 4 mm diameter opening sealed to the surface of each well reduced the plating area in each well. Following 1 hour, wells were filled with 37° C. culture medium with 10 ng/mL GDNF (Glial Derived Neurotrophic Factor) (Preprotech 450-10). Sixteen to 23 hours after plating, cultures were loaded with Fura-2 AM (Molecular Probes F-1221) fluorescent dye for 40-60 minutes, then washed with pH 7.4 oxygenated observation medium containing no additional ATP (145 mM NaCl, 5 mM KCl, 2 mM CaCl2, 1 mM MgCl2, 1 mM Citrate, 10 mM glucose, 10 mM MES, 10 mM HEPES). The final well volume was 500 μL.
Choice and concentrations of metabolites: Because the afferent receptors in muscle have been reported to be on the outside of blood vessels supplying muscle, values obtained for muscle interstitium from experiments using cat, rat, and human for muscle contraction evoked by mild to moderate to extreme exercise were used.
Protons (pH): Values between 7.6 and 6.2 were used spanning the range found in skeletal and cardiac muscle in mammals from above resting values to those found with injury and disease.
Lactate: 1-50 mM lactate was used, a range of values that spans from rest to ischemia in muscles of humans and rats and mice.
ATP: ATP concentrations in muscle interstitium increase from 300 nM at rest to 5 μM with ischemic muscle contraction (Hellsten et al., 1998; Li et al., 2003; Li et al., 2005). These levels were used in the experiments described below. […] To allow for physiological levels of desensitization of possible P2X receptors, freshly prepared ATP at 300 nM was used for at least 30 seconds before any further increases in ATP combined with other metabolites, to establish resting conditions in DRG neurons in these experiments. […] Also used were pH 6.0 and 4.0 without additional increases in metabolites to confirm that the imaging experiments could replicate recent reports using patch-clamp techniques (Leffler et al., 2006).
(§2) Combinations of metabolites applied to mimic naturally occurring conditions: When applied in an escalating series to mimic increases in metabolites that occur with muscle exercise and ischemic muscle exercise, the metabolite values shown in Table 1 were used. The values associated with pH 7.6 are at or below those normally found at rest in the mouse. The values at 7.4 approximate those found at rest. Generally, the low metabolite values associated with pH higher than 7.0 are likely to be non-noxious, while higher metabolite values at pH 7.0 and lower may be associated with pain. These values should bracket the physiological range of metabolites found in skeletal muscle with the last two values (those associated with 6.4 and 6.2) being higher than the physiological range (Bangsbo et al., 1993; Bangsbo et al., 2001; Li et al., 2003; Li et al., 2005; Reeh and Kress, 2001; Steinhagen et al., 1976).
Di-I labeling: In some experiments, neurons were identified as innervating muscle by prior muscle labeling with Di-I. Twelve 7-9 day old mice were anesthetized by cooling. […]

[2] = target: T1, ASIC1 (Homo sapiens, UniProt P78348); settings: read-out: IC 50 for ASIC1; cited from earlier work
T1 sequence (P78348 1-528): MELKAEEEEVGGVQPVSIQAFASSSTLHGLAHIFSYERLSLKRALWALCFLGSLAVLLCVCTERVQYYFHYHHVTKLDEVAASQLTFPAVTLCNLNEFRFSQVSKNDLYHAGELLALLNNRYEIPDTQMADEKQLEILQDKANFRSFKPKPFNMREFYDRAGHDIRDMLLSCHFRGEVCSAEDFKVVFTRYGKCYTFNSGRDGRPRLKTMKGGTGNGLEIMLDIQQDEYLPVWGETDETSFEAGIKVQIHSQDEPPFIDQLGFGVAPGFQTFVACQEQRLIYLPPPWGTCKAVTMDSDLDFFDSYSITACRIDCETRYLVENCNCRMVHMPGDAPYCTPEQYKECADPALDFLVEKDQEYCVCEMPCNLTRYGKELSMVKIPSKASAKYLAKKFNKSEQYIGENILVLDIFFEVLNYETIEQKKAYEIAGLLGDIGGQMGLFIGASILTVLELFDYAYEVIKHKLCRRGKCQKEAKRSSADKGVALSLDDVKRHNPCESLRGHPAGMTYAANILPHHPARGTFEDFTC

[3] = target: T2, ASIC2 (Homo sapiens, UniProt Q16515); settings: read-out: IC 50 for ASIC2; cited from earlier work
T2 sequence (Q16515 1-512): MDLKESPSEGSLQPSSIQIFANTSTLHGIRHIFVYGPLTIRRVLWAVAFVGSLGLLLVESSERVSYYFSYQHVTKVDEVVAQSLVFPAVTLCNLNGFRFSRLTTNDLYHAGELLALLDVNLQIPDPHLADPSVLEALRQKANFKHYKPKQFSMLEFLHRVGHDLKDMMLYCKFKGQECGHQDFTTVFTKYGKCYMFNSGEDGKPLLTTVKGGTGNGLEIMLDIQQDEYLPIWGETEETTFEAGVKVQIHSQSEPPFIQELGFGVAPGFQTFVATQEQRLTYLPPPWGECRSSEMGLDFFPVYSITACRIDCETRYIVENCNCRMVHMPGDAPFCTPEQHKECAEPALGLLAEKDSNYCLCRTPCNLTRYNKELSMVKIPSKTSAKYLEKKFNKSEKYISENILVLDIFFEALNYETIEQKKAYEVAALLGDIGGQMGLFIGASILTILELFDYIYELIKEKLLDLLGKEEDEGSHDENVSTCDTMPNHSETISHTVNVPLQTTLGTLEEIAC

[4] = target: T3, ASIC3 (Homo sapiens, UniProt Q9UHC3); settings: cited from earlier work
T3 sequence (Q9UHC3 1-531): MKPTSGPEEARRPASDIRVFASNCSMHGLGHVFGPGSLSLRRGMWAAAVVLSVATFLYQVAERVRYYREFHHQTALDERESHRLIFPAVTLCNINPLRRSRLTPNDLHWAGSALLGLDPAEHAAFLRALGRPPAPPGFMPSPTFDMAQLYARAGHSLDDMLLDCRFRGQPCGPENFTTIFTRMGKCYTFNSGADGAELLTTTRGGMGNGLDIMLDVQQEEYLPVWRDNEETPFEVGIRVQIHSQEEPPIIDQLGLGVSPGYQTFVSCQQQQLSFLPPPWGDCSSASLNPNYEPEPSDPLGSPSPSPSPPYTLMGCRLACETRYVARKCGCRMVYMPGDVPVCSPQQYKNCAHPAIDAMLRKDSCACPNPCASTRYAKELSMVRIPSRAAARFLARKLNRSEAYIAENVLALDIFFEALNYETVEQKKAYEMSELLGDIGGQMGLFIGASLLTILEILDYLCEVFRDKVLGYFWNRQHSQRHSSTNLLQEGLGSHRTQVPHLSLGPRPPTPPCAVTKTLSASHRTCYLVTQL

[5] = system: DRG neurons; assay: Calcium imaging of cultured DRG neurons: antagonist effects on responses to capsaicin, ATP or KCl (selectivity control); format: cell-based, mouse
Description: as §1
(§3) JYL-1422, LJO-328, A-317567, and a selected stereo isomer of A-317567 were each dissolved in 5% DMSO/95% water and a few μL of 1M HCl to a concentration of 10 mM, then quick frozen and stored at −20° C. Aliquots of antagonists were thawed and diluted to the appropriate concentrations just prior to use in the experiments. The strong buffers maintained the pH of these antagonists when mixed with metabolites.
(§4) Imaging procedure: All experiments were performed at room temperature (20-25° C.) to allow correspondence with most previous experiments using calcium imaging and patch clamp of DRG neurons. Cells were imaged using the Meta Imaging Series Metafluor program (Universal Imaging Corp). All cells identifiable as neurons based on their round shape, clear, single nucleus, were selected from a phase image of the field. At the end of each experiment, 200 nM capsaicin was applied, followed by a wash, and then applied 50 mM KCl. Capsaicin activation indicated the presence of TRPV1 receptors on neurons, and KCl ensured that recorded objects were active neurons, and established the maximal calcium response in each neuron. For some neurons the administration of capsaicin abolished the potential for responding to KCl, thus either a response to capsaicin or to KCl indicated viability of neurons, and only viable neurons were included in analyses.
For each field an average of 151+10 cells were tracked real-time. […]

[6] = system: DRG neurons; assay: Calcium imaging of cultured DRG neurons: antagonist effects on responses to increasing metabolites (protons, lactate, ATP); format: cell-based, mouse
Description: as §1, §2, §3, §4
For each field an average of 151+10 cells were tracked real-time. […] FIGS. 1 and 2 show traces from these graphs. […]

CC(O)C(=O)O (stereo not shown) [lactate]
percent of DRG neurons activated ([1]; 50 mM, pH 6.6): 9.5% | percent of DRG neurons activated ([1]; 5-15 mM combined with protons at pH 7.3-6.8): less than 4% | DRG neuron responses ([1]; alone, 1-50 mM, pH 7.4): caused no increases in DRG neuron responses; also recorded: activated very few mouse DRG neurons | total percent of DRG neurons activated ([1]; lactate plus protons, all levels of metabolites included): more than 10%

CC(C)C1c2cc(C3CC3c3ccc4cc(C(=N)N)ccc4c3)ccc2CCN1C (stereo not shown) [A-317567]
IC50 [2]: 2000 nM | IC50 [3]: 9.1 µM | IC50 ([4]; read-out: IC 50 for ASIC3): 9.5 µM | effect on responses to capsaicin, ATP or KCl ([5]; any dose, applied for 10 minutes or less): caused no decrements in calcium responses evoked by capsaicin, ATP or KCl; also recorded: did not decrease responses to capsaicin, ATP, or KCl; also recorded: did not block DRG neuron capsaicin responses, KCl responses, or responses to 5 μM ATP | effect on responses to capsaicin, ATP or KCl ([5]; applied for more than 20 minutes): caused some decrements in these responses | DRG neuron responses to metabolites blocked ([6]; antagonist 100 μM, metabolites increased as high as pH 6.6, lactate 50 mM, ATP 5): ~80% | responses to metabolites, % of the control level ([6]; antagonist 100 μM, p<0.0001): 23% | effect on responses to metabolites ([6]; antagonist 200 μM): blocked all responses to metabolites

Nc1ncnc2c1ncn2[C@@H]1O[C@H](COP(=O)(O)OP(=O)(O)OP(=O)(O)O)[C@@H](O)[C@H]1O [ATP]
percent of DRG neurons responding ([1]; ATP with lactate): 4.7% | ability to enhance metabolite responses [1]: capable of enhancing metabolite responses when freshly prepared | percent of DRG neurons activated ([1]; graded series, going from 2 μM to 5 μM): approximately 16% | percent of DRG neurons activated ([1]; gradually increased from resting amounts, only at concentrations higher than 2 μM): < 11% | percent of DRG neurons activated ([1]; increasing graded series from 300 nM, when 2 μM was reached): less than 10% | percent of DRG neurons responding ([1]; pH 7.0-ATP 1 μM (increasing protons with addition of ATP)): 11.2%

Cc1nc(N=Nc2ccc(S(=O)(=O)O)cc2S(=O)(=O)O)c(COP(=O)(O)O)c(C=O)c1O [PPADS]
effect on responses to increasing metabolites ([6]; antagonist 300 μM): eliminated most responses to increasing metabolites | effect on responses to increasing metabolites ([6]; antagonist 200-300 μM, doses effective at all P2X receptors): eliminated nearly all responses to increasing metabolites

APETx2
inhibition of ASIC3 and ASIC3 heteromers [4]: can selectively inhibit ASIC3 and ASIC3 heteromers

Nc1ncnc2c1ncn2[C@@H]1O[C@H](COP(=O)(O)OP(=O)(O)O)[C@@H](O)[C@H]1O [ADP]
ability to enhance metabolite responses [1]: not capable of enhancing metabolite responses
